In ChEMBL document CHEMBL1926625, “Identification of benzoxazin-3-one derivatives as novel, potent, and selective nonsteroidal mineralocorticoid receptor antagonists” (J Med Chem, 2011):

Biological target: T1, Androgen receptor (Homo sapiens, UniProt P10275)
T1 sequence (P10275 whole entry): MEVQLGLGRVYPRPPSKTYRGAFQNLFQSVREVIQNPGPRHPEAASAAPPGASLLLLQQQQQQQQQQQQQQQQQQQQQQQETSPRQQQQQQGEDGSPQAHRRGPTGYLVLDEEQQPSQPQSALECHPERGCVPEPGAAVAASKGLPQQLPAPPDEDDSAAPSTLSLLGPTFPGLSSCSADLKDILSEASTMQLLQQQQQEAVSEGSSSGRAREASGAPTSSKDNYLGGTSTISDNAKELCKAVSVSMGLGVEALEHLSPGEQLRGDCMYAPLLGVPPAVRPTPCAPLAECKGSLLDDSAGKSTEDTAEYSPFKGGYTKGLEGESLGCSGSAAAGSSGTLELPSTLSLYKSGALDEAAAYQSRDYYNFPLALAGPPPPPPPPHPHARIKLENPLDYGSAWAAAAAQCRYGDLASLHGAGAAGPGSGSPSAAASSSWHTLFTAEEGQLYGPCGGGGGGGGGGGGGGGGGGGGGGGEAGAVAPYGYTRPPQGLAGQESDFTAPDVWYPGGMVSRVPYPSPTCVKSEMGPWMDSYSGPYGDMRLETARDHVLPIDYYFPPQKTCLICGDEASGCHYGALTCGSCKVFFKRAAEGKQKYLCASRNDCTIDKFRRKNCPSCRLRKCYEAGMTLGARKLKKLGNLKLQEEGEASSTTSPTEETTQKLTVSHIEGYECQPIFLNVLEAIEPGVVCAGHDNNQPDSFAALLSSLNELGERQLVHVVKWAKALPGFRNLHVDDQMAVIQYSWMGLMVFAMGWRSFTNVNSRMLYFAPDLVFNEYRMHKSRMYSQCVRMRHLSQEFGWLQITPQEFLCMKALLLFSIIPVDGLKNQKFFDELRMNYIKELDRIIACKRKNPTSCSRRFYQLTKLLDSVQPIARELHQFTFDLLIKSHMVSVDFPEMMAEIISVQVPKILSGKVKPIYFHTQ
Test: Displacement of [3H]testosterone from AR

`Cc1cc(F)ccc1-n1nc(C(F)(F)F)cc1-c1ccc2c(c1)NC(=O)CO2` was tested, and the IC50 was over 10 µM.
